Where only a bound is given, the exact number is not on record here.

The results in this text go back to patent US20240417405A1, “Substituted Spiro Derivatives” (Janssen Pharmaceutica NV, priority 2021, published 2024).

The subject of test [1] is MOLM14 cells. The experiment in a line: Proliferation assay, spheroid-like growth, MOLM14 (MLL-AF9 rearranged). It counts as cell-based, human. To be noted: Homo sapiens, MOLM-14, 192 h, 8 days, confluence as measure of spheroid size, read-out: spheroid assay_OneTime MOLM14 IC50. The procedure, abridged:
(§1)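 Seed cells at linear-growth densities in low-attachment wells; add test compound at several concentrations, normalized to 0.3% DMSO; incubate 8 days at 37 °C; image spheroids and measure confluence; calculate absolute IC50 against DMSO and reference-compound controls.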

For test [2], the system named is KO-52 cells. As to the kind of experiment: Proliferation assay, spheroid-like growth, KO-52 (MLL wildtype control cell line). It counts as cell-based, human. To be noted: Homo sapiens, 192 h, KO-52 control cells, 8 days, confluence as measure of spheroid size; read-out: spheroid assay_OneTime KO-52 IC50. The procedure, abridged: as §1
Test [3] deals with T1, menin/MLL (terbium chelate-labeled menin, FITC-MBM1 peptide) (Homo sapiens, UniProt O00255, T541A).
T1 construct: Menin (a.a 1-610-6xhis tag)
T1 sequence (O00255 with tags, fused parts or gaps T541A): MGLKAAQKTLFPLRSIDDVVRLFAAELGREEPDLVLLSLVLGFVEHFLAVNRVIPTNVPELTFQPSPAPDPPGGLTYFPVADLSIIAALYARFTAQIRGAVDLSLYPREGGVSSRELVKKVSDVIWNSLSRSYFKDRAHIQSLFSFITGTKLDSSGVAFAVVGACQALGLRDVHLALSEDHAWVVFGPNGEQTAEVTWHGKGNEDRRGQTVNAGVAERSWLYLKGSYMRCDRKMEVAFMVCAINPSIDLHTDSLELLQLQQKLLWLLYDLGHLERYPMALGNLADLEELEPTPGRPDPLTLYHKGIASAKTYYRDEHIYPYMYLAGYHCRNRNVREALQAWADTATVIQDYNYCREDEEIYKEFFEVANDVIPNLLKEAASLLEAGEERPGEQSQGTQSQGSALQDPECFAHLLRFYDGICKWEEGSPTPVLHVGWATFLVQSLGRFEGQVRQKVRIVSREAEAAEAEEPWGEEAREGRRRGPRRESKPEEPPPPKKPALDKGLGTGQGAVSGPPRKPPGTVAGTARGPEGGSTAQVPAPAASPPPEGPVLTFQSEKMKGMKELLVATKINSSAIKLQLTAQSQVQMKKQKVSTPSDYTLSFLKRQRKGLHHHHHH
As to the kind of experiment: Menin/MLL homogenous time-resolved fluorescence (HTRF) assay. Type of test: binding. To be noted: 30 min incubation. The procedure, abridged: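 Percent inhibition, calculated from the 520/490 nm HTRF ratio against high and low controls, was fitted for IC50 with a 0.1 nM detection limit. Reactions held 200 pM Tb-menin and 75 nM FITC-MBM1 in pH 7.5 Tris buffer with 0.5% DMSO.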

In general, IC50 refers to the midpoint of a concentration-inhibition curve. For `CC(=O)N[C@H]1C[C@@H]([C@H](N2CC3(CCN(c4ncnnc4Oc4ccc(F)cc4-c4cncnc4C4CC4)C3)C2)C23CC(C2)C3)C1` (single isomer, unassigned) [Compound 342], the IC50 in test [1] was 82 nM; in test [2] it was 5840 nM; in test [3] it was 0.3 nM.
On the same counts, the results for `CC(=O)N[C@H]1C[C@@H]([C@@H](C(C)C)N2CC3(CCN(c4ncnnc4Oc4ccc(F)cc4-c4cnc(C#N)nc4C4CC4)C3)C2)C1` (single isomer, unassigned) [Compound 343] are 15 nM, 1140 nM and 0.2 nM.
For `CC(C)[C@@H]([C@H]1CC[C@@H](NC(=O)C2CC2)C1)N1CC2(CCN(c3ncnnc3Oc3ccc(F)cc3-c3cncnc3C3CC3)C2)C1` (single isomer, unassigned) [Compound 344], the results for the IC50 in test [1], in test [2] and in test [3] were 54 nM, 1590 nM and 0.1 nM, respectively.
Regarding `CC(C)[C@H]([C@H]1C[C@H](N2CCC2)C1)N1CC2(CCN(c3ncnnc3Oc3ccc(F)cc3-c3cncnc3C3CC3)C2)C1` (single isomer, unassigned) [Compound 345], the IC50 in test [1] worked out at 55 nM; in test [2], 7400 nM; in test [3], 1 nM.
The matching figures for `CC(C)[C@@H]([C@H]1C[C@H](N2CCC2)C1)N1CC2(CCN(c3ncnnc3Oc3ccc(F)cc3-c3cncnc3C3CC3)C2)C1` (single isomer, unassigned) [Compound 346]: 700 nM, above 15000 nM and 2.3 nM.
Consider `CC(C)[C@H]([C@H]1C[C@@H](N(C)CCC(=O)N(C)C)C1)N1CC2(CCN(c3ncnnc3Oc3ccc(F)cc3-c3cncnc3C3CC3)C2)C1` (single isomer, unassigned) [Compound 348], for which the values for the IC50 in test [1], in test [2] and in test [3] were 4 nM, 10200 nM and 0.2 nM, respectively.
In the case of `CC(C)[C@H](C1CCN(C[C@H]2C[C@@](C)(O)C2)CC1)N1CC2(CCN(c3ncnnc3Oc3ccc(F)cc3-c3cccnc3C3CC3)C2)C1` (single isomer, unassigned) [Compound 351], the IC50 in test [1] is 20 nM; in test [2], 1100 nM; in test [3] it was 0.1 nM.
Regarding `CC(C)[C@H](C1CN(CC2COC2)C1)N1CC2(CCN(c3ncnnc3Oc3ccc(F)cc3-c3cncnc3C3CC3)C2)C1` (single isomer, unassigned) [Compound 354], the figures for the IC50 in test [1], in test [2] and in test [3] were 2430 nM, above 15000 nM and 7.4 nM, respectively.
The matching figures for `CCC(=O)N[C@H]1C[C@@H]([C@@H](C(C)C)N2CC3(CCN(c4ncnnc4Oc4ccc(F)cc4-c4cncnc4C4CC4)C3)C2)C1` (single isomer, unassigned) [Compound 356]: 11 nM, above 15000 nM and 0.3 nM.
Turning to `CC(C)[C@H](C1CCN(C[C@H]2C[C@@H](O)C2)CC1)N1CC2(CCN(c3ncnnc3Oc3ccc(F)cc3-c3cncnc3C3CC3)C2)C1` (single isomer, unassigned) [Compound 357], the values for the IC50 in test [1], in test [2] and in test [3] were 45 nM, 9790 nM and 0.1 nM, respectively.
With `CC(C)[C@H](C1CCN(C[C@H]2C[C@H](O)C2)CC1)N1CC2(CCN(c3ncnnc3Oc3ccc(F)cc3-c3cncnc3C3CC3)C2)C1` (single isomer, unassigned) [Compound 358], the IC50 in test [1] came out at 23 nM; in test [2], 2210 nM; in test [3], 0.1 nM.
For the molecule `CC(=O)N1CC2(C1)CN([C@H]1C[C@@H]([C@H](C(C)C)N3CC4(CCN(c5ncnnc5Oc5ccc(F)cc5-c5cnc(C)cc5C5CC5)C4)C3)C1)C2` (single isomer, unassigned) [Compound 371], the values for the half-inhibitory concentration (IC50) in test [1], in test [2] and in test [3] were 3 nM, 10100 nM and 0.15 nM, respectively.
For the molecule `CC(=O)N1CC2(C1)CN([C@H]1C[C@@H]([C@H](C(C)C)N3CC4(CCN(c5ncnnc5Oc5ccc(F)cc5-c5ncc(C)cc5C5CC5)C4)C3)C1)C2` (single isomer, unassigned) [Compound 373], the values for the IC50 in test [1], in test [2] and in test [3] were 7.6 nM, 5410 nM and 0.77 nM, respectively.
On the same counts, the results for `CC(=O)Nc1nccc(N[C@H]2C[C@@H]([C@@H](C(C)C)N3CC4(CCN(c5ncnnc5Oc5ccc(F)cc5-c5cncnc5C5CC5)C4)C3)C2)n1` (single isomer, unassigned) [Compound 405] are 3 nM, 7570 nM and 0.22 nM.
The matching figures for `CC(C)[C@H]([C@H]1C[C@@H](Nc2ncc(C(=O)N(C)C)o2)C1)N1CC2(CCN(c3ncnnc3Oc3ccc(F)cc3-c3cncnc3C3CC3)C2)C1` (single isomer, unassigned) [Compound 435]: 3 nM, 2470 nM and 0.17 nM.
The matching figures for `CNC(=O)c1cnc(N[C@H]2C[C@@H](C(C(C)C)N3CC4(CCN(c5ncnnc5Oc5ccc(F)cc5-c5cncnc5C5CC5)C4)C3)C2)o1` (single isomer, unassigned) [Compound 436]: 9.9 nM, 5970 nM and 0.36 nM.
Take `CNC(=O)c1cnc(N[C@H]2C[C@@H]([C@@H](C(C)C)N3CC4(CCN(c5ncnnc5Oc5ccc(F)cc5-c5cncnc5C5CC5)C4)C3)C2)s1` (single isomer, unassigned) [Compound 437]: the IC50 in test [1] amounted to 3.3 nM; in test [2], 4700 nM; in test [3] it was 0.05 nM.
On the same counts, the results for `CCOC(=O)c1cnc(N[C@H]2C[C@@H](C(C(C)C)N3CC4(CCN(c5ncnnc5Oc5ccc(F)cc5-c5cncnc5C5CC5)C4)C3)C2)o1` (single isomer, unassigned) [Compound 478] are 12 nM, 1250 nM and 0.29 nM.
Turning to `CC(C)C([C@H]1C[C@@H](Nc2ncc(C(=O)O)o2)C1)N1CC2(CCN(c3ncnnc3Oc3ccc(F)cc3-c3cncnc3C3CC3)C2)C1` (single isomer, unassigned) [Compound 479], the IC50 was 530 nM in test [1], above 15000 nM in test [2] and 1.77 nM in test [3].
Take `CC(=O)N[C@H]1C[C@@H](C(C(C)C)N2CC3(CCN(c4ncnnc4Oc4ccc(F)cc4-c4cncnc4C4CC4)C3)C2)C1` (stereo partly drawn) [Compound 2]: the IC50 in test [1] was determined as 29 nM; in test [2], 9040 nM; in test [3], 0.4 nM.
`CC(C)C(C1CCN(CC2COC2)CC1)N1CC2(CCN(c3ncnnc3Oc3ccc(F)cc3-c3cncnc3C3CC3)C2)C1` (stereo not drawn) [Compound 6]: the IC50 in test [1] was 280 nM; in test [2], 6470 nM; in test [3], 0.3 nM.
On the same counts, the results for `CC(C)C([C@H]1C[C@@H](N2CCOCC2)C1)N1CC2(CCN(c3ncnnc3Oc3ccc(F)cc3-c3cncnc3C3CC3)C2)C1` (stereo partly drawn) [Compound 120] are 73 nM, above 15000 nM and 0.3 nM.
On to `CC(C)C([C@H]1C[C@@H](N2CCC(O)CC2)C1)N1CC2(CCN(c3ncnnc3Oc3ccc(F)cc3-c3cncnc3C3CC3)C2)C1` (stereo partly drawn) [Compound 121], for which the results for the half-maximal inhibitory concentration (IC50) in test [1], in test [2] and in test [3] were 7 nM, 2780 nM and 0.1 nM, respectively.
On to `CC(C)C([C@H]1C[C@@H](N2CCC(C#N)CC2)C1)N1CC2(CCN(c3ncnnc3Oc3ccc(F)cc3-c3cncnc3C3CC3)C2)C1` (stereo partly drawn) [Compound 122], for which the IC50 in test [1] was 55 nM; in test [2], above 15000 nM; in test [3] it was 0.2 nM.
On the same counts, the results for `CC(C)C([C@H]1C[C@@H](N2CCS(=O)(=O)CC2)C1)N1CC2(CCN(c3ncnnc3Oc3ccc(F)cc3-c3cncnc3C3CC3)C2)C1` (stereo partly drawn) [Compound 123] are 1910 nM, above 15000 nM and 5.4 nM.
On the same counts, the results for `COC1CCN([C@H]2C[C@@H](C(C(C)C)N3CC4(CCN(c5ncnnc5Oc5ccc(F)cc5-c5cncnc5C5CC5)C4)C3)C2)CC1` (stereo partly drawn) [Compound 124] are 12 nM, 2520 nM and 0.2 nM.
The matching figures for `CC(C)C([C@H]1C[C@@H](N2CC(O)C2)C1)N1CC2(CCN(c3ncnnc3Oc3ccc(F)cc3-c3cncnc3C3CC3)C2)C1` (stereo partly drawn) [Compound 125]: 12 nM, 5300 nM and 0.1 nM.
